# In patent US20170138969A1, “System And Method For Measuring Permeability Of Drugs/Toxic/Chemical Compounds” (Indian Institute Of Technology Madras, priority 2014, published 2017):
# Experiment: Membrane integrity test in lipid monolayer (LB) PAMPA system
# Type: in vitro ADME
# Protocol: FIG. 3-4 illustrates graphs 300-400 illustrating the membrane integrity test, in accordance with the disclosed embodiments. The membrane integrity test can be performed according to the standard protocol. An 80 μl aqueous solution containing Lucifer yellow (LY) and Brilliant Cresyl Blue (BCB) in the ratio 1:9 is added into the donor well. The PAMPA system can be assembled and incubated for 5 hours at 25° C. The acceptor plate and donor well are separated and concentration of LY and BCB was analyzed by measuring; Fluorescence: Excitation wavelength @428 mn; Emission wavelength @525 nm; Absorbance; at 610 nm for BCB.
# FIG. 3 illustrates the graph 300 showing the permeation of BCB as 0.045; Absorbance units after 5 hours of incubation indicating the presence of integral membrane. Similarly, the graph 400 illustrates the rejection of Lucifer Yellow after 5 hours of incubation indicating the presence of integral membrane. The rejection of Lucifer yellow indicates the presence of an integral membrane.
Substance,"permeation of BCB (absorbance at 610 nm, acceptor) (PAMPA)","permeation/rejection of Lucifer Yellow (fluorescence, excitation 428 / emission 525 nm) (LY:BCB 1:9 aqueous solution, 80 μl in donor well, after 5 hours of incubation at 25° C.)"
Brilliant Cresyl Blue [BCB],0.045 Absorbance units,–
Lucifer yellow,–,rejection
